Laboratory results from PMC7395068, “The evolution of strategies to minimise the risk of human drug-induced liver injury (DILI) in drug discovery and development” (Archives of Toxicology, 2020).
Where two headings read alike, the source gives them in different places.

Tests used:
[1] = cited from earlier work
[2] = read-out: Human plasma Cmax; total plasma Cmax.tot, median of 9 literature references; cited from earlier work
[3] = cited from earlier work; remark: listed apart in the source
hLiMTs [4] = details: cited from earlier work
hLiMTs [5] = assay: Combined HCI (HCS) and cellular ATP 3D assay in hLiMTs
PHH = details: cited from earlier work
HepaRG spheroids = assay: Combined HCI (HCS) and cellular ATP 3D assay in HepaRG spheroids
[6] = system: HepG2 C3A spheroid, BSEP, Glu/Gal in HepG2 cells, bioactivation; details: cited from earlier work
[7] = In vitro Assay, ref Proctor 2017
[8] = Microtissue model structural based (HCI), combined HCS and ATP, MEC < 25 × Cmax.tot cut-off

Compound: Cc1c(-c2ccccc2)oc2c(C(=O)OCCN3CCCCC3)cccc2c1=O [flavoxate]
- Assigned DILI category ([1]; Chen et al. 2016 or literature alignment, ref Chen et al. 2016): 1
- In vivo DILI ([1]; ref Proctor 2017): -VE
- In vivo DILI ([1]; ref Williams 2019): -VE
- Cmax [2]: 1790 nM
- DILI severity category (Chen et al. [2016]) ([3]; LTKB DILIrank category, ref Chen et al. 2016): No
- DILI severity category (Chen 2016) ([3]; human DILI classification, LTKB DILIrank, ref Chen et al. 2016): No
- DILI severity category ([3]; human DILI severity, ref Chen et al.): No
- DILI +VE (5-8), DILI -VE (-4) ([3]; ref Chen 2016): -VE
- DILI severity category ([3]; ref Chen 2016): vNo-DILI-Concern
- hLiMTs ATP <100uM (hLiMTs [4]; [7]): -VE
- hLiMTs/100xCmax, Proctor (2017) (hLiMTs [4]; hLiMTs, ATP, IC50 < 100 × Cmax.tot, ref Proctor et al. 2017): -VE
- hLiMTs/100uM, Proctor (2017) (hLiMTs [4]; hLiMTs, ATP, IC50 threshold 100 µM, ref Proctor et al. 2017): -VE
- AC50 (hLiMTs [5]; Homo sapiens, read-out: ATP endpoint AC50): 127 µM
- minimal effective concentration (hLiMTs [5]; Homo sapiens, read-out: ATP endpoint MEC): 111 µM
- DILI prediction hLiMTs (HCS-MEC) (hLiMTs [5]; [8]): -VE
- hLiMTs <25x Avg Cmax ATP (hLiMTs [5]; hLiMTs, ATP endpoint, cut-off <25x Avg Cmax): -ve
- hLiMTs <100x Avg Cmaxu ATP (hLiMTs [5]; hLiMTs, ATP endpoint, cut-off <100x Avg Cmaxu): -ve
- hLiMTs <25x Avg Cmax HCS (hLiMTs [5]; hLiMTs, HCS endpoints, cut-off <25x Avg Cmax): -ve
- hLiMTs <100x Avg Cmaxu HCS (hLiMTs [5]; hLiMTs, HCS endpoints, cut-off <100x Avg Cmaxu): -ve
- hLiMTs <25x Avg Cmax All (hLiMTs [5]; hLiMTs, all endpoints (ATP and HCS), cut-off <25x Avg Cmax): -ve
- hLiMTs Cmax max All (hLiMTs [5]; hLiMTs, all endpoints, Cmax max used): -ve
- hLiMTs Cmax min All (hLiMTs [5]; hLiMTs, all endpoints, Cmax min used): -ve
- hLiMTs <10 uM All (hLiMTs [5]; hLiMTs, all endpoints, cut-off <10 uM): -ve
- hLiMTs <100x Avg Cmaxu All (hLiMTs [5]; hLiMTs, all endpoints, cut-off <100x Avg Cmaxu): -ve
- PHH/100xCmax, Proctor (2017) (PHH; 2D PHH, ATP, IC50 < 100 × Cmax.tot, ref Proctor et al. 2017): -VE
- PHH/100uM, Proctor (2017) (PHH; 2D PHH, ATP, IC50 threshold 100 µM, ref Proctor et al. 2017): -VE
- PHH ATP <100uM (PHH; [7]): -VE
- HepaRG <25x Avg Cmax ATP (HepaRG spheroids; HepaRG, ATP endpoint, cut-off <25x Avg Cmax): -ve
- HepaRG <100x Avg Cmaxu ATP (HepaRG spheroids; HepaRG, ATP endpoint, cut-off <100x Avg Cmaxu): -ve
- HepaRG <25x Avg Cmax HCS (HepaRG spheroids; HepaRG, HCS endpoints, cut-off <25x Avg Cmax): -ve
- HepaRG <100x Avg Cmaxu HCS (HepaRG spheroids; HepaRG, HCS endpoints, cut-off <100x Avg Cmaxu): -ve
- HepaRG <25x Avg Cmax All (HepaRG spheroids; HepaRG, all endpoints (ATP and HCS), cut-off <25x Avg Cmax): -ve
- HepaRG Cmax max All (HepaRG spheroids; HepaRG, all endpoints, Cmax max used): -ve
- HepaRG Cmax min All (HepaRG spheroids; HepaRG, all endpoints, Cmax min used): -ve
- HepaRG <10 uM All (HepaRG spheroids; HepaRG, all endpoints, cut-off <10 uM): -ve
- HepaRG <100x Avg Cmaxu All (HepaRG spheroids; HepaRG, all endpoints, cut-off <100x Avg Cmaxu): -ve
- DILI prediction HepaRG spheroids (HCS-MEC) (HepaRG spheroids; [8]): -VE
- Bayesian Machine Learning DILI prediction, Williams (2019) ([6]; Bayesian modeling, ref Williams et al. 2019): -VE
- Bayesian Machine Learning ([6]; ref Williams 2019): -VE
